Results on 1 compound are retold here after paper PMC4022860, “Fragments of Bacterial Endoglycosidase S and Immunoglobulin G Reveal Subdomains of Each That Contribute to Deglycosylation” (The Journal of Biological Chemistry, 2014).

In the test the target is T1, EndoS CBM (carbohydrate binding module of endoglycosidase S) (Streptococcus pyogenes, UniProt Q99Y92).
T1 construct: isolated CBM domain, residues 761-924, C-terminal hexahistidine tag (pET303), 15N-labelled, expressed in E. coli BL21(DE3)
T1 sequence (Q99Y92 761-924): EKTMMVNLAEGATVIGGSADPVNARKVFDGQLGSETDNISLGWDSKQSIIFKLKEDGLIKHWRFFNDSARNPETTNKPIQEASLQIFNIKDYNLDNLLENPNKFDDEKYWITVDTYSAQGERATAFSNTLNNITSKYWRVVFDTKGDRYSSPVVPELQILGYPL
In words: 1H, […] HSQC NMR titration. The settings on record: 0.15 mM 15N-CBM; 62.5 mM to 2 M ligand; 10 mM BisTris, pH 6.5, 15 mM NaCl, 37 °C.

Consider `OC[C@H]1OC(O)[C@H](O)[C@@H](O)[C@H]1O` (stereo partly drawn) [D-galactose], for which the “1H,15N HSQC NMR titration” value was “four distinct peaks appeared upon D-galactose titration, which were visible from the lowest titration point”.
